Data on 17 molecules can be found in paper PMC4759522, “A fragment merging approach towards the development of small molecule inhibitors of Mycobacterium tuberculosis EthR for use as ethionamide boosters” (Organic & Biomolecular Chemistry, 2016).

Molecules are shown by their SMILES. Where two headings read alike, the source gives them in different places.

Assay [1] concerns the target T1, EthR (Mycobacterium tuberculosis, UniProt P9WMC1). The assay can be described thus: Fluorescence-based thermal shift (DSF) against EthR. The assay is classed as binding. The settings on record: fluorescent-based thermal shift against EthR, 100 μM compound.
Assay [2] concerns the target T1, EthR. The assay can be described thus: SPR functional assay: disruption of the interaction between EthR and its DNA operator. The settings on record: for LE: calculated using IC50 values determined by SPR; for fold improvement by SPR compared to compound 5: compared to merged compound 5. In kind it is biochemical. The procedure: (§1) containing NaCl (300 mM), Tris.HCl (20 mM, pH = 8.0) and DMSO-d6 (10% v/v) was prepared and placed in the sample cell of a MicroCal iTC200 microcalorimeter (GE Healthcare). The fragment solution was then titrated to the EthR solution over 39 injections (first injection of 0.4 μl and subsequent injections of 1.0 μl). Data was fitted to a one site binding model using Origin software.
(§2) Figure S6 ITC trace for 4-(4-(3-Oxo-3-(pyrrolidin-1-yl)propyl)piperidin-1-yl)benzonitrile 15 Surface plasmon resonance (SPR)
(§3) The SPR assay was carried out using a BIAcore T100 instrument as described previously.2 The assay was designed to measure the interaction of EthR with the ethA promoter DNA sequence (106 bp – experimental DNA), immobilised via biotin-streptavidin linkage onto an […]
(1 picture or pasted object on this page, not shown here)
SA Series S Sensor Chip (BIAcore). DNA from pUC19 (113 bp) was used as the control against non-specific binding. The experimental (106 bp) and control (113 bp) DNA fragments were produced as described previously.15,16 Biotinylated control and experimental DNA were immobilized to the chip surface to achieve stable fixation levels of 247 and 252 resonance units (RU) respectively.
For screening, EthR/ fragment solution (1-2 μM EthR and required concentration of fragment made up in running buffer (2 mM MgCl2, 10 mM Tris-Cl pH 7.5, 0.1 mM EDTA, 200 mM NaCl, 2% (v/v) DMSO) was flowed over the chip at 20 μL/min for 180 s. The dissociation time was 180 s. To determine binding levels, the response of the control channel at steady state was subtracted from that of the experiment channel. The chip was regenerated between samples using 0.03% w/v SDS in running buffer (passed at a flow rate of 20 μL/ min for 60 […]
For IC50 calculations, the SPR response of EthR binding to the immobilized DNA was measured at various concentrations of compound. The resulting RUs were used to fit the data using nonlinear regression with variable slope dose-response inhibition constrains on GrapfPad PRISM 5.00. IC50 values were calculated as the compound concentrations necessary to inhibit 50% of the maximal interaction between EthR and its DNA operator […]
Figure S7 IC50 curve (SPR) for N-((1-(4-Cyanophenyl)piperidin-4-yl)methyl)pyrrolidine-1-

Assay [3] concerns the target T1, EthR. In words: Isothermal titration calorimetry (ITC) binding to EthR. The following applies: for K D (ITC): n.d. = no heats of binding detected.
Description: Figure S5 Crystal structure of 28 bound to EthR (the two different binding modes for this ligand are super-imposed). Although the conformations of the side chains of residues Phe184 and Trp138 preclude the formation of sub-pockets III and IV in the sense of Figure S3, compound 28 is still capable of binding to the protein by altering the shape of the EthR hydrophobic cavity and moulding it around its own scaffold. (PDB code 5F0H) […]
Differential scanning fluorimetry (DSF)
DSF measurements were carried out using a Bio-Rad CFX Connect machine with a 96-well reaction module. Samples (50 μl each) containing EthR (20 μM), NaCl (150 mM), Tris.HCl (20 mM, pH = 8.5), SYPRO orange (2.5x) and test compound (100 µM) in water were prepared in 96-well plates. The 96-well plates were heated linearly from 25 °C to 95 °C using a temperature increment of 0.5 °C every 30 seconds. Melting curves represent plots of the fluorescence emission intensity at λmax 490/575 nm of each sample against temperature.
Melting temperatures (Tm) were determined as the temperatures at which the minima on the negative first derivatives of the melting curves occurred.
Isothermal titration calorimetry (ITC)
An aqueous solution of the fragment to be tested (1 mM) was prepared containing NaCl (300 mM), Tris.HCl (20 mM, pH = 8.0), d6-DMSO (10% v/v) and glycerol (to match the 10% v/v glycerol content in the EthR stock solution). A separate aqueous solution of EthR (50 μM) […]
(1 picture or pasted object on this page, not shown here) […]
as §1, §2, §3
Background: In ITC the heat of successive injections is recorded.

T1 sequence (P9WMC1 whole entry, looked up, the tested form may be a part): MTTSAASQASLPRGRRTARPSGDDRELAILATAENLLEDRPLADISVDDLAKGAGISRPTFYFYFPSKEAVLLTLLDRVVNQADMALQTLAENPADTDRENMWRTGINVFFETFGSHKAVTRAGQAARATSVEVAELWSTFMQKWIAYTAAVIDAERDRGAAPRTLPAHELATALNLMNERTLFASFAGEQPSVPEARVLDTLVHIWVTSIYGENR

`O=C(CCC1CCCC1)N1CCCC1` [Compound 1]: on EthR [1], the ΔT m result is “+3.5 °C”. At EthR [2], the IC50 (commonly the concentration needed to halve the response being measured) amounted to 280 µM and the LE was 0.36. The Kd – broadly, the constant that tells how readily two partners part at equilibrium – on EthR [3] stood at 12 µM.

Take `CNCc1ccc(N2CCCCC2)cc1` [Compound 2]: the ΔT m result on EthR [1] is “+3.8 °C”. In addition, the half-inhibitory concentration (IC50) at EthR [2] (disruption of EthR binding to its DNA operator, SPR, read-out: IC50 (SPR)) was over 100 µM.

`CNCc1ccc(N2CCCN(C(=O)CCC3CCCC3)C2)cc1` [Compound 3, 3-cyclopentyl-1-(3-(4-((methylamino)methyl)phenyl)tetrahydropyrimidin-1(2H)-yl)propan-1-one] showed an IC50 on EthR [2] of over 100 µM.

In the case of `O=C(CCC1CCCC1)Nc1cccc(N2CCCCC2)c1` [Compound 4], the ΔT m entry at EthR [1] was “+4.5 °C”. The same molecule came in with an IC50 on EthR [2] of over 100 µM.

For the molecule `CNCc1ccc(N2CCC(CCC(=O)N3CCCC3)CC2)cc1` [Compound 5], on EthR [1], the ΔT m result was “+4.3 °C”. The molecule further gave a 50% inhibitory concentration (IC50) on EthR [2] of 35 µM. At EthR [2] (compared to fragment 1), the “fold improvement in disruption of EthR-DNA interaction (SPR IC50) compared to starting fragment 1” value is “eight-fold”. For the same molecule, on EthR [3], the equilibrium dissociation constant (Kd) came out at 5 µM.

`CN(Cc1ccc(N2CCC(CCC(=O)N3CCCC3)CC2)cc1)C(=O)OC(C)(C)C` [Compound 14]: on EthR [1], the ΔT m result was “+6.3 °C”. Also, at EthR [2], half-maximal inhibition (IC50) was put at 7 µM and the “fold improvement by SPR compared to compound 5” value is “five-fold”. For the same molecule, the Kd at EthR [3] was 3 µM.

For the molecule `N#Cc1ccc(N2CCC(CCC(=O)N3CCCC3)CC2)cc1` [Compound 15, 4-(4-(3-Oxo-3-(pyrrolidin-1-yl)propyl)piperidin-1-yl)benzonitrile], at EthR [1], the ΔT m entry is “+7.5 °C”. In addition, at EthR [2], it took 3 µM to reach half-maximal inhibition (IC50), the LE is listed as 0.34 and the “fold improvement by SPR compared to compound 5” value stood at 10 fold. Also, the Kd on EthR [3] turned out to be 1 µM. Also, the “fold decrease in K D by ITC compared to compound 5” value on EthR [3] (compared to compound 5) is given as “five-fold”.

For the molecule `CCOC(=O)c1ccc(N2CCC(CCC(=O)N3CCCC3)CC2)cc1` [Compound 16], on EthR [1], the ΔT m result is “+9.3 °C”. In addition, on EthR [2], the IC50 was 3 µM. Further, the “K D (ITC)” value on EthR [3] is reported as “binding could not be measured by ITC”.

Take `N#Cc1ccc(N2CCC(CNC(=O)N3CCCC3)CC2)cc1` [Compound 17, N-((1-(4-Cyanophenyl)piperidin-4-yl)methyl)pyrrolidine-1-carboxamide]: on EthR [1], the ΔT m result was “+7.2 °C”. On EthR [2], this molecule gave an IC50 of 4 µM.

As for `CCOC(=O)c1ccc(N2CCC(CNC(=O)N3CCCC3)CC2)cc1` [Compound 18], at EthR [1], the ΔT m result is “+8.8 °C”. On EthR [2], this molecule registered an IC50 of 2 µM.

For `N#Cc1ccc(N2CCC(CNC(=O)C3CCCC3)CC2)cc1` [Compound 19], the ΔT m result on EthR [1] was “+5.9 °C”. On EthR [2], this molecule displayed an IC50 of 25 µM.

For the molecule `CCOC(=O)c1ccc(N2CCC(CNC(=O)C3CCCC3)CC2)cc1` [Compound 20], at EthR [1], the ΔT m result is “+5.5 °C”. This molecule displayed a 50% inhibitory concentration (IC50) on EthR [2] of over 100 µM.

Take `O=C(NCC1CCN(c2ccccn2)CC1)N1CCCC1` [Compound 21]: on EthR [1], the ΔT m result was “+3.8 °C”. Further, on EthR [2], it took 22 µM to reach half-maximal inhibition (IC50) and the LE is listed as 0.31. On EthR [3], binding was put at a Kd of 24 µM.

Take `O=C(NCC1CCN(c2ncccn2)CC1)N1CCCC1` [Compound 22]: the ΔT m result on EthR [1] was “+3.7 °C”. The molecule also registered a half-inhibitory concentration (IC50) against EthR [2] of 20 µM. The molecule further registered a Kd at EthR [3] of 12 µM.

At EthR [2], `N#Cc1ccc(N2CCC(CCC(=O)Nc3cccc(N4CCCCC4)c3)CC2)cc1` [Compound 23, 3-(1-(4-cyanophenyl)piperidin-4-yl)-N-(3-(piperidin-1-yl)phenyl)propanamide] registered an IC50 of over 100 µM. For the same molecule, the “K D (ITC)” value at EthR [3] is on record as “could not be observed by ITC”.

The molecule `N#Cc1ccc(N2CCC(CCC(=O)NCc3ccc(N4CCCCC4)cc3)CC2)cc1` [Compound 28] showed an IC50 at EthR [2] of 33 µM. The “K D (ITC)” value at EthR [3] is reported as “could not be observed by ITC”.

Regarding `N#Cc1ccc(N2CCC(CCC(=O)NCc3cccc(N4CCCCC4)c3)CC2)cc1` [Compound 29], the ΔT m result at EthR [1] was “+9.2 °C”. Besides, the half-maximal inhibitory concentration (IC50) on EthR [2] was 52 µM. The “K D (ITC)” value on EthR [3] was “could not be observed by ITC”.
